Measured values from ChEMBL document CHEMBL1201862, “PubChem BioAssay data set” (2004).
Several values for one entry are separate records, joined by “and”; a condition that tells them apart may be missing. Equal values may be shown once.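 These data come from cells grown in 96-well plates and exposed to compound for 48 hours at five concentrations. At the GI50, growth is halved.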 Activity calls are given as the source filed them. Rule as the data show it: active = GI50 up to about 1.1 µM and inactive = higher. Where a SMILES comes first, the peptide text is derived from it. The star is where a group is joined. Cbz = O=C(OCc1ccccc1)*; OBn = c1ccc(CO*)cc1

Key:
Assay in all cases: NCI-60 cell line screen, 48 h
NCI-H522 = tested on: NCI-H522
NCI/ADR-RES = tested on: NCI/ADR-RES
IGROV-1 = tested on: IGROV-1
HCT-116 = tested on: HCT-116
SF-268 = tested on: SF-268
SR = tested on: SR
MOLT-4 = tested on: MOLT-4
SW-620 = tested on: SW-620
NCI-H23 = tested on: NCI-H23
UACC-257 = tested on: UACC-257
SK-MEL-5 = tested on: SK-MEL-5
PC-3 = tested on: PC-3
HOP-62 = tested on: HOP-62
LOX IMVI = tested on: LOX IMVI
Malme-3M = tested on: Malme-3M
EKVX = tested on: EKVX
RPMI-8226 = tested on: RPMI-8226
SK-OV-3 = tested on: SK-OV-3
UO-31 = tested on: UO-31
A498 = tested on: A498

Measured: GI50

C[N+](C)([O-])Cc1cccc(NC(=O)c2ccc(C(=O)Nc3cccc(C[N+](C)(C)[O-])c3)cc2)c1
inactive: NCI-H522 > 100 µM | NCI/ADR-RES > 100 µM | IGROV-1 > 100 µM | HCT-116 > 100 µM | SF-268 > 100 µM | SR > 100 µM | MOLT-4 > 100 µM | SW-620 > 100 µM | NCI-H23 > 100 µM | UACC-257 > 100 µM | SK-MEL-5 > 100 µM | PC-3 > 100 µM | HOP-62 > 100 µM | LOX IMVI > 100 µM | Malme-3M > 100 µM | EKVX > 100 µM | RPMI-8226 > 100 µM | SK-OV-3 > 100 µM | UO-31 > 100 µM

CCCCCCC(=O)OC[n+]1cccc(-c2c(COC(=O)NC(C)C)c(COC(=O)NC(C)C)c3n2CCC3)c1
inactive: NCI-H522 22.6 µM | NCI/ADR-RES 32.4 µM | IGROV-1 > 41.8 µM | A498 23 µM | HCT-116 32.8 µM | SF-268 20.4 µM | MOLT-4 11.6 µM | SW-620 28.4 µM | NCI-H23 26.9 µM | UACC-257 64.1 µM | SK-MEL-5 32.4 µM | PC-3 > 56.8 µM | HOP-62 42.5 µM | LOX IMVI 22 µM | Malme-3M 38.9 µM | EKVX > 100 µM | RPMI-8226 32.1 µM | SK-OV-3 40.6 µM | UO-31 26.2 µM

O=C(O)Cc1ccc([N+](=O)[O-])cc1[N+](=O)[O-]
inactive: NCI-H522 > 100 µM | NCI/ADR-RES > 100 µM | IGROV-1 > 100 µM | A498 > 100 µM | HCT-116 > 100 µM | SF-268 > 100 µM | MOLT-4 > 100 µM | SW-620 > 100 µM | NCI-H23 > 100 µM | UACC-257 > 100 µM | SK-MEL-5 > 100 µM | PC-3 > 100 µM | HOP-62 > 100 µM | LOX IMVI > 100 µM | Malme-3M > 100 µM | EKVX > 100 µM | RPMI-8226 > 100 µM | SK-OV-3 > 100 µM | UO-31 > 100 µM

N=c1sc2ccccc2n1CC[S-].c1ccc2c(c1)sc1[n+]2CCS1
inactive: NCI-H522 18 µM | NCI/ADR-RES 20.4 µM | IGROV-1 12.5 µM | A498 14.7 µM | HCT-116 16.9 µM | SF-268 20 µM | MOLT-4 3 µM | SW-620 17.1 µM | NCI-H23 16.1 µM | UACC-257 17.8 µM | SK-MEL-5 14.8 µM | PC-3 29.8 µM | HOP-62 17.3 µM | LOX IMVI 16.9 µM | Malme-3M 17.7 µM | EKVX 22 µM | SK-OV-3 23.1 µM | UO-31 12.5 µM

Fc1ccc(C(OCCN2CC3CCC(C2)N3CCCc2ccccc2)c2ccc(F)cc2)cc1
inactive: NCI-H522 2.17 µM | NCI/ADR-RES 3.89 µM | IGROV-1 8.71 µM | A498 4.27 µM | HCT-116 2.93 µM | SF-268 4.5 µM | MOLT-4 2.79 µM | SW-620 3.54 µM | NCI-H23 4.25 µM | UACC-257 3.33 µM | SK-MEL-5 1.82 µM | PC-3 2.72 µM | HOP-62 6.03 µM | LOX IMVI 3.89 µM | Malme-3M 3.32 µM | EKVX 4.06 µM | RPMI-8226 2.15 µM | SK-OV-3 10.2 µM | UO-31 7.33 µM

CCOC(=O)C1(C#N)C(=O)c2cc[n+](CC[n+]3ccc4c(c3)C(=O)C(C#N)(C(=O)OCC)C4=O)cc2C1=O (stereo not given)
inactive: NCI-H522 > 100 µM | NCI/ADR-RES > 100 µM | IGROV-1 > 100 µM | A498 > 100 µM | HCT-116 > 100 µM | SF-268 96.8 µM | MOLT-4 > 100 µM | SW-620 > 100 µM | NCI-H23 > 100 µM | UACC-257 > 100 µM | SK-MEL-5 18.4 µM | PC-3 > 100 µM | LOX IMVI 74.1 µM | Malme-3M 60.4 µM | EKVX > 100 µM | RPMI-8226 > 100 µM | SK-OV-3 > 100 µM | UO-31 > 100 µM

COc1ccc(C(=O)/C=C/c2ccc(OCCCCCCCCCCOc3ccc(/C=C/C(=O)c4ccc(OC)cc4)cc3)cc2)cc1
inactive: NCI/ADR-RES > 100 µM | IGROV-1 > 100 µM | HCT-116 > 100 µM | SF-268 > 100 µM | SR > 100 µM | MOLT-4 > 100 µM | SW-620 > 100 µM | UACC-257 > 100 µM | SK-MEL-5 > 100 µM | PC-3 > 100 µM | HOP-62 > 100 µM | EKVX > 100 µM | RPMI-8226 > 100 µM | SK-OV-3 > 100 µM | UO-31 > 100 µM

COc1c(Sc2c(SCSc3cnc4ccccc4c3Sc3cnc4ccccc4c3OC)cnc3ccccc23)cnc2ccccc12
inactive: NCI-H522 19.2 µM | NCI/ADR-RES 42.5 µM | IGROV-1 8.13 µM | HCT-116 46.5 µM | SF-268 > 100 µM | SR 21.8 µM | MOLT-4 55.8 µM | SW-620 31.6 µM | NCI-H23 54.8 µM | UACC-257 > 100 µM | SK-MEL-5 24.8 µM | PC-3 > 100 µM | HOP-62 42.9 µM | LOX IMVI > 100 µM | EKVX 35.7 µM | RPMI-8226 9.2 µM | UO-31 24.7 µM

Brc1ccc(-c2[nH]c3ccccc3c2/N=N\c2ccccc2)cc1
inactive: NCI-H522 17.6 µM | IGROV-1 12.1 µM | A498 25.4 µM | HCT-116 19 µM | SF-268 17.9 µM | SR 15.3 µM | MOLT-4 16.9 µM | SW-620 17.5 µM | NCI-H23 18.2 µM | UACC-257 19.3 µM | SK-MEL-5 18.3 µM | PC-3 16.1 µM | HOP-62 18.1 µM | LOX IMVI 30.8 µM | Malme-3M 19.1 µM | EKVX 16.6 µM | RPMI-8226 21.7 µM | SK-OV-3 18.9 µM | UO-31 16 µM

COC(=O)C(Cc1ccc(O)cc1)NC(=O)C(CC(=O)OCc1ccccc1)NC(=O)OCc1ccccc1 (stereo not given) (Cbz-Asp(OBn)-Tyr-OMe; configuration not given here)
inactive: IGROV-1 17.3 µM | A498 20.6 µM | HCT-116 19.3 µM | SR 22.8 µM | MOLT-4 24.7 µM | SW-620 22.4 µM | NCI-H23 23.6 µM | UACC-257 21.2 µM | SK-MEL-5 18.2 µM | PC-3 17.7 µM | HOP-62 19.7 µM | Malme-3M 41.1 µM | EKVX 23.8 µM | RPMI-8226 24.9 µM | UO-31 22.9 µM

FC(F)(F)c1ccc(C2=N/S(c3ccccc3)=N\C(c3ccc(C(F)(F)F)cc3)=N/S(c3ccccc3)=N\2)cc1 (stereo not given)
inactive: NCI-H522 > 100 µM | NCI/ADR-RES > 100 µM | IGROV-1 > 100 µM | HCT-116 > 100 µM | SF-268 > 100 µM | SR > 100 µM | MOLT-4 > 100 µM | SW-620 > 100 µM | NCI-H23 > 100 µM | UACC-257 > 100 µM | SK-MEL-5 > 100 µM | PC-3 > 100 µM | LOX IMVI > 100 µM | Malme-3M > 100 µM | EKVX > 100 µM | RPMI-8226 > 100 µM | SK-OV-3 > 100 µM | UO-31 > 100 µM

COc1ccc(-c2oc3c(OC)c(OC)cc(O)c3c(=O)c2OC)cc1
inactive: NCI-H522 54.8 µM | NCI/ADR-RES > 100 µM | IGROV-1 > 100 µM | A498 45.8 µM | HCT-116 46.5 µM | SF-268 > 100 µM | MOLT-4 > 100 µM | SW-620 > 100 µM | NCI-H23 > 100 µM | UACC-257 > 100 µM | SK-MEL-5 91.6 µM | PC-3 > 10 µM | HOP-62 55.8 µM | LOX IMVI 65 µM | Malme-3M > 100 µM | EKVX > 100 µM | SK-OV-3 36.5 µM | UO-31 > 100 µM

Oc1cc(O)cc(-c2nc3cc(F)ccc3s2)c1
inactive: NCI-H522 18.7 µM | NCI/ADR-RES 36.8 µM | IGROV-1 27.7 µM | A498 18.5 µM | HCT-116 24.5 µM | SF-268 19.4 µM | SW-620 38.1 µM | NCI-H23 26.4 µM | UACC-257 16.4 µM | SK-MEL-5 17.5 µM | PC-3 25.1 µM | LOX IMVI 18.5 µM | Malme-3M 31.6 µM | RPMI-8226 18.5 µM | SK-OV-3 25.8 µM | UO-31 24 µM

Cc1cc(OCc2nnc3n2S(=O)(=O)c2ccccc2N3C)ccc1Cl
inactive: NCI-H522 6.79 µM | NCI/ADR-RES 35.7 µM | IGROV-1 22.9 µM | A498 24.6 µM | HCT-116 39.5 µM | SF-268 16.3 µM | MOLT-4 55 µM | SW-620 > 100 µM | NCI-H23 34.4 µM | UACC-257 61 µM | SK-MEL-5 38.7 µM | PC-3 95.5 µM | HOP-62 14.1 µM | LOX IMVI 33.7 µM | EKVX 33.1 µM | SK-OV-3 10.4 µM | UO-31 58.3 µM

Cc1nc2ccc(NC3OC(CO)C(O)C(O)C3O)cc2c(=O)n1-c1ccccc1 (stereo not given)
inactive: NCI-H522 > 100 µM | NCI/ADR-RES > 100 µM | IGROV-1 > 100 µM | A498 > 100 µM | HCT-116 > 100 µM | SF-268 > 100 µM | MOLT-4 > 100 µM and > 99.3 µM | SW-620 > 100 µM | NCI-H23 > 100 µM | UACC-257 > 100 µM | SK-MEL-5 58.3 µM | PC-3 > 100 µM | HOP-62 > 100 µM | LOX IMVI > 100 µM | Malme-3M > 100 µM | EKVX > 100 µM | RPMI-8226 > 100 µM | UO-31 > 100 µM
